According to patent US20060040905A1 (priority 2002, published 2006):

Assays:
[1] = test system: nasal epithelial cell-line (RPMI 2650); assay: cytotoxicity against nasal epithelial cell-line; type: cell-based; conditions: RPMI 2650 cells; even at high concentrations (>5 mM)
[2] = stability with excipients individually; type: physicochemical
solubility = type: physicochemical
Excerpt: (§1) Nefopam may thus be rapidly and completely absorbed from the nasal cavity and provide the rapid onset of action required to bring pain relief.

[3] = stability in solution across pH range; type: physicochemical; conditions: wide pH range (4-7) including pH 5.5-6.5
Excerpt: as §1

[4] = in vivo; cited from earlier work
mouse tail-flick test = conditions: cited from earlier work
hot plate test = conditions: in vivo; cited from earlier work
[5] = test system: Randall-Selitto pressure test; conditions: rats; cited from earlier work

## CN1CCOC(c2ccccc2)c2ccccc2C1 (racemic) [nefopam]
[1]
  cytotoxicity: no cytotoxicity
[2]; 4 weeks incubation at 25° C.
  stability with all the excipients individually: demonstrated
[2]; 4 weeks incubation at 50° C.
  stability with all the excipients individually: demonstrated
solubility
  solubility: highly soluble
[3]
  stability in solution: stable in solution
[4]
  elimination half-life: four
Mouse tail-flick test
  activity in mouse tail-flick test: not active
Hot plate test
  activity in hot plate test: not active
[5]
  activity in Randall-Selitto pressure test: not active
